Experimental data from patent US6211375A, “Pyridonecarboxylic acid derivatives or salts thereof and antibacterial agents containing the same as the active ingredient” (Wakunaga Pharmaceutical Co., Ltd., priority 1996, dated 2001).
≈ marks a conversion by molar mass, not a printed value. Like-named read-outs stand apart in the source and are kept apart here.

What was measured:
ears = assay: Phototoxicity Test (abnormality in the ears of mice after UVA irradiation); assay type: in vivo, Female ICR mice; settings: 40 mg/kg i.v., UVA 320 to 400 nm, 4 hours; for ear abnormality, point: 0 = no abnormality, 1 = very slight erythema, 2 = well defined erythema, 3 = moderate to severe erythema or edema
Method: Female ICR mice (5 to 6 week old) were intravenously administered with the test compound (40 mg/kg/10 ml), and irradiated with UVA (320 to 400 nm, 1.8 mW/cm^2 /sec) for 4 hours. Abnormality in the ears was monitored at 0 hour immediately after the irradiation and after 24 hours. The ear abnormality was evaluated by the following criteria: no abnormality (0 point), very slight erythema (1 point), well defined erythema (2 points), moderate to severe erythema or edema formation (3 points). Tosufloxacin which is a conventional known antibacterial agent was also tested in a similar way for the purpose of comparison.

S.aureus 209P = assay: Antibacterial Activity, minimum growth inhibitory concentration (MIC), S.aureus 209P; assay type: cell-based; settings: Staphylococcus aureus, standard method of Japan Chemotherapy Society
Method: (§1) Minimum growth inhibitory concentration (MIC, μg/ml) was evaluated in accordance with the standard method of Japan Chemotherapy Society (Chemotherapy 29(1), 76, 1981). It should be noted that tosufloxacin was also evaluated for its minimum growth inhibitory concentration for the purpose of comparison.

P. aeruginosa IFO3445 = assay: Antibacterial Activity, minimum growth inhibitory concentration (MIC), P. aeruginosa IFO3445; assay type: cell-based; settings: Pseudomonas aeruginosa, standard method of Japan Chemotherapy Society
Method: as §1

[1] = Absorption and Excretion (urine and bile recovery rates after oral administration); assay type: in vivo, Male SD rats; settings: rat, 20 mg/kg, rats, oral 20 mg/10 ml/kg
Method: A compound of the present invention was measured for its urine and bile recovery rates in rats after its oral administration to evaluate absorption and excretion of the compounds.
Male SD rats of 6 week old which had been fasted overnight were administered orally with 0.5% methylcellulose suspension of the test compounds (20 mg/10 ml/kg). The urine collection was continued until 24 hours after the administration. The concentration of the test compound in the urine was measured by paper disc method using Bacillus subtilis ATCC6633 for the test bacterium to determine the urine recovery rate.
Into choledoch duct of male SD rats of 6 week old which had been fasted overnight was inserted a polyethylene tube under etherization. After arousing, the rats were forcedly administered orally with the test compounds as in the case of the above (1), and bile collection was continued until 24 hours after the administration. The bile with no further treatment and the bile alkaline hydrolyzed (with 0.1N NaOH, 37° C., 1 hour) were measured for their concentration of the test compound by the same procedure as in the case of the above (1) to determine the bile recovery rate.

Cc1cc(F)c(N)cc1-n1cc(C(=O)O)c(=O)c2cc(F)c(N3CC(O)C3)c(C)c21 [Compound of Ex. 9, 1-(3-amino-4-fluoro-6-methylphenyl)-6-fluoro-7-(3-hydroxyazetidin-1-yl)-8-methyl-4-oxo-1,4-dihydroquinoline-3-carboxylic Acid]
ear abnormality, occurrence (ears; 0 hour after irradiation): 0/3
ear abnormality, point (ears; 0 hour after irradiation): 0 point
ear abnormality, occurrence (ears; 24 hours after irradiation): 0/3
ear abnormality, point (ears; 24 hours after irradiation): 0 point
MIC (S.aureus 209P): 13 ng/mL (≈ 0.0313 µM)
MIC (P. aeruginosa IFO3445): 0.2 µg/mL (≈ 0.481 µM)

Cc1c(N2CC(O)C2)c(F)cc2c(=O)c(C(=O)O)cn(-c3cc(N)c(F)cc3F)c12 [Compound of Ex. 8, 1-(3-amino-4,6-difluorophenyl)-6-fluoro-7-(3-hydroxyazetidin-1-yl)-8-methyl-4-oxo-1,4-dihydroquinoline-3-carboxylic Acid]
ear abnormality, occurrence (ears; 0 hour after irradiation): 0/3
ear abnormality, point (ears; 0 hour after irradiation): 0 point
ear abnormality, occurrence (ears; 24 hours after irradiation): 0/3
ear abnormality, point (ears; 24 hours after irradiation): 0 point
MIC (S.aureus 209P): 6 ng/mL (≈ 0.0143 µM)
MIC (P. aeruginosa IFO3445): 0.2 µg/mL (≈ 0.477 µM)

Cc1c(N2CC(C)(N)C2)c(F)cc2c(=O)c(C(=O)O)cn(-c3cc(N)c(F)cc3F)c12 [Compound of Ex. 3, 7-(3-amino-3-methylazetidin-1-yl)-1-(3-amino-4,6-difluorophenyl)-6-fluoro-8-methyl-1,4-dihydro-4-oxoguinoline-3-carboxylic Acid]
dose excreted at 24 h ([1]; bile, 0-24 hours, bile after alkaline hydrolysis (0.1N NaOH, 37° C., 1 hour), read-out: Recovery rate (24 hours), Bile*): 26.7%
dose excreted at 24 h ([1]; bile, 0-24 hours, bile with no further treatment, read-out: Recovery rate (24 hours), Bile): 10.4%
dose excreted at 24 h ([1]; urine and bile, 24 hours, total recovery rate, read-out: Recovery rate (24 hours), Total recovery rate): 30.6%
dose excreted at 24 h ([1]; urine, 0-24 hours, paper disc method with Bacillus subtilis ATCC6633, read-out: Recovery rate (24 hours), Urine): 3.9%
ear abnormality, occurrence (ears; 0 hour after irradiation): 0/3
ear abnormality, point (ears; 0 hour after irradiation): 0 point
ear abnormality, occurrence (ears; 24 hours after irradiation): 0/3
ear abnormality, point (ears; 24 hours after irradiation): 0 point
MIC (S.aureus 209P): 6 ng/mL (≈ 0.0139 µM)
MIC (P. aeruginosa IFO3445): 0.1 µg/mL (≈ 0.231 µM)

Cc1cc(F)c(N)cc1-n1cc(C(=O)O)c(=O)c2cc(F)c(N3CC(C)(N)C3)c(C)c21 [Compound of Ex. 5, 7-(3-amino-3-methylazetidin-l-yl)-1-(3-amino-4-fluoro-6-methylphenyl)-6-fluoro-8-methyl-1,4-dihydro-4-oxoguinoline-3-carboxylic Acid]
ear abnormality, occurrence (ears; 0 hour after irradiation): 0/3
ear abnormality, point (ears; 0 hour after irradiation): 0 point
ear abnormality, occurrence (ears; 24 hours after irradiation): 0/3
ear abnormality, point (ears; 24 hours after irradiation): 0 point
MIC (S.aureus 209P): 13 ng/mL (≈ 0.0303 µM)
MIC (P. aeruginosa IFO3445): 0.2 µg/mL (≈ 0.467 µM)

CNC1CN(c2c(F)cc3c(=O)c(C(=O)O)cn(-c4cc(N)c(F)cc4F)c3c2C)C1 [Compound of Ex. 2, 1-(3-amino-4,6-difluorophenyl)-6-fluoro-8-methyl-7-(3-methylaminoazetidin-1-yl)-1,4-dihydro-4-oxoguinoline-3-carboxylic Acid]
ear abnormality, occurrence (ears; 0 hour after irradiation): 0/3
ear abnormality, point (ears; 0 hour after irradiation): 0 point
ear abnormality, occurrence (ears; 24 hours after irradiation): 0/3
ear abnormality, point (ears; 24 hours after irradiation): 0 point
MIC (S.aureus 209P): 6 ng/mL (≈ 0.0139 µM)
MIC (P. aeruginosa IFO3445): 0.1 µg/mL (≈ 0.231 µM)

Cc1c(F)c(N2CC(N)C2)c(C)c2c1c(=O)c(C(=O)O)cn2-c1cc(N)c(F)cc1F [Compound of Ex. 10, 7-(3-aminoazetidin-1-yl)-1-(3-amino-4,6-difluorophenyl)-6-fluoro-5,8-dimethyl-4-oxo-1,4-dihydroquinoline-3-carboxylic Acid]
ear abnormality, occurrence (ears; 0 hour after irradiation): 0/3
ear abnormality, point (ears; 0 hour after irradiation): 0 point
ear abnormality, occurrence (ears; 24 hours after irradiation): 0/3
ear abnormality, point (ears; 24 hours after irradiation): 0 point
MIC (S.aureus 209P): 3 ng/mL (≈ 0.00694 µM)
MIC (P. aeruginosa IFO3445): 0.1 µg/mL (≈ 0.231 µM)

Cc1c(N2CC(N)C2)c(F)cc2c(=O)c(C(=O)O)cn(-c3cc(N)c(F)cc3F)c12 [Compound of Ex. 1, 7-(3-aminoazetidin-1-yl)-1-(3-amino-4,6-difluorophenyl)-6-fluoro-8-methyl-1,4-dihydro-4-oxoguinoline-3-carboxylic Acid]
ear abnormality, occurrence (ears; 0 hour after irradiation): 0/3
ear abnormality, point (ears; 0 hour after irradiation): 0 point
ear abnormality, occurrence (ears; 24 hours after irradiation): 0/3
ear abnormality, point (ears; 24 hours after irradiation): 0 point
MIC (S.aureus 209P): 6 ng/mL (≈ 0.0143 µM)
MIC (P. aeruginosa IFO3445): 0.05 µg/mL (≈ 0.12 µM)

Cc1cc(F)c(N)cc1-n1cc(C(=O)O)c(=O)c2cc(F)c(N3CC(N)C3)c(C)c21 [Compound of Ex. 4, 7-(3-aminoazetidin-1-yl)-1-(3-amino-4-fluoro-6-methylphenyl)-6-fluoro-8-methyl-1,4-dihydro-4-oxoguinoline-3-carboxylic Acid]
ear abnormality, occurrence (ears; 0 hour after irradiation): 0/3
ear abnormality, point (ears; 0 hour after irradiation): 0 point
ear abnormality, occurrence (ears; 24 hours after irradiation): 0/3
ear abnormality, point (ears; 24 hours after irradiation): 0 point
MIC (S.aureus 209P): 3 ng/mL (≈ 0.00724 µM)
MIC (P. aeruginosa IFO3445): 0.1 µg/mL (≈ 0.241 µM)

Cc1c(N2CC(N)C2)c(F)cc2c(=O)c(C(=O)O)cn(-c3cc(N)c(F)cc3Cl)c12 [Compound of Ex. 7, 7-(3-aminoazetidin-1-yl)-1-(3-amino-6-chloro-4-fluorophenyl)-6-fluoro-8-methyl-1,4-dihydro-4-oxoguinoline-3-carboxylic Acid]
ear abnormality, occurrence (ears; 0 hour after irradiation): 0/3
ear abnormality, point (ears; 0 hour after irradiation): 0 point
ear abnormality, occurrence (ears; 24 hours after irradiation): 0/3
ear abnormality, point (ears; 24 hours after irradiation): 0 point
MIC (S.aureus 209P): 13 ng/mL (≈ 0.0299 µM)
MIC (P. aeruginosa IFO3445): 0.1 µg/mL (≈ 0.23 µM)

NC1CCN(c2nc3c(cc2F)c(=O)c(C(=O)O)cn3-c2ccc(F)cc2F)C1 (stereo not shown) [Tosufloxacin, reference compound]
ear abnormality, occurrence (ears; 0 hour after irradiation): 4/5
ear abnormality, point (ears; 0 hour after irradiation): 1.8 point
ear abnormality, occurrence (ears; 24 hours after irradiation): 4/5
ear abnormality, point (ears; 24 hours after irradiation): 0.8 point
MIC (S.aureus 209P): 50 ng/mL (≈ 0.124 µM)
MIC (P. aeruginosa IFO3445): 0.39 µg/mL (≈ 0.965 µM)

CNC1CN(c2c(F)cc3c(=O)c(C(=O)O)cn(-c4cc(N)c(F)cc4C)c3c2C)C1 [Compound of Ex. 6, 1-(3-amino-4-fluoro-6-methylphenyl)-6-fluoro-8-methyl-7-(3-methylaminoazetidin-1-yl)-1,4-dihydro-4-oxoguinoline-3-carboxylic Acid]
ear abnormality, occurrence (ears; 0 hour after irradiation): 0/3
ear abnormality, point (ears; 0 hour after irradiation): 0 point
ear abnormality, occurrence (ears; 24 hours after irradiation): 0/3
ear abnormality, point (ears; 24 hours after irradiation): 0 point
MIC (S.aureus 209P): 13 ng/mL (≈ 0.0303 µM)
MIC (P. aeruginosa IFO3445): 0.2 µg/mL (≈ 0.467 µM)
